Source: patent EP0745597A2, “Novel melatonergic indanyl piperazines or homopiperazines” (BRISTOL-MYERS SQUIBB COMPANY, priority 1995, dated 1996)

What follows are molecules tested against T1, human ML1B receptor (Homo sapiens, UniProt P49286) (assay: Measurement of binding to melatonergic receptors (2-[125I]-iodomelatonin, membranes of transfected NIH 3T3 cells)). Settings: 2-[125I]-Iodomelatonin 200 pM, 37 °C for 1 hour, NIH 3T3 cells stably transfected with the human ML1B receptor; read-out: Melatonin Binding.
T1 construct: host or cells: NIH 3T3 cells, stably transfected; membrane homogenates
T1 sequence (P49286 1-362): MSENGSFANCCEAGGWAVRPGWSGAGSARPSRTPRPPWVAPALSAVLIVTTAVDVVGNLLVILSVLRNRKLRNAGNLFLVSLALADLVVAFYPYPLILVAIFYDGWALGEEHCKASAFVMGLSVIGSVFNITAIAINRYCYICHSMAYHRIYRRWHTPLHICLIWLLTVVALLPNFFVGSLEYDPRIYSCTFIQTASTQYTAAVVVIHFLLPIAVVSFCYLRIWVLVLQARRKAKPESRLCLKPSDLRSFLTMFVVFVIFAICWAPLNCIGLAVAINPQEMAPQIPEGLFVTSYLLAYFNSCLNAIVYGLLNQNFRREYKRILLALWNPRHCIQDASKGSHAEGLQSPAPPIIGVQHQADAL
Description: The melatonergic binding affinities of various compounds of Formula I were determined by the method of Reppert, S. M., Weaver, D. R., and Ebisawa, R. (Neuron, Volume 13, 1177-1185, 1994). The assays were incubated at 37 °C for 1 hour, and the reaction was terminated by filtration. The filters were washed with wash buffer. […] The reagents, membrane and other techniques used in the melatonergic binding assays are more fully described below: • 1. Reagents: • (a) 50 mM Tris buffer containing 12.5 mM MgCl2, and 2mM EDTA, pH 7.4 at 37 °C. • (b) Wash buffer: 20 mM Tris base containing 2 mM MgCl2. pH 7.4 at room temperature. • (c) Melatonin (10^-5 M final concentration). • (d) 2-[^125I]-Iodomelatonin, 200 pM final concentration Source: NEN • 2. Membrane preparation: NIH 3T3 cells stably transfected with the human ML1B receptor were obtained from S.M. Reppert and maintained. Cells were pelleted when confluent. The supernatant was discarded and the pellets frozen. For preparing membrane homogenates, the pellets are thawed on ice and resuspended in TME buffer, Tris base, MgCl2, EDTA (pH 7.4 at 37 °C ), supplemented with aprotinin, leupeptin, and […]. The cells were then homogenized and centrifuged. The resulting pellet was resuspended with a Dounce homogenizer in TME and frozen. At assay, a small aliquot was thawed on ice and resuspended in TME buffer. […] These compounds are considered active.

Question: Which IC50 does the source give for `COc1ccc2c(c1)C(N1CCN(C(=O)c3ccc(Cl)s3)CC1)CC2` (single isomer, unassigned; (-)) [(-)-1-[(5-Chloro-thien-2-yl)carbonyl]-4-(6-methoxy-indan-1-yl)piperazine] here?
Answer: 100 to 250 nM

Question: With `CNC(=O)N1CCN(C2CCc3ccc(OC)cc32)CC1` (stereo not drawn) [N-Methyl-4-(6-methoxy-indan-1-yl)piperazine-1-carboxamide] as the molecule, how does the IC50 read?
Answer: < 10 nM

Question: For `COc1cc2c(cc1F)CCC2N1CCN(C(=O)C2CC2)CC1` (stereo not drawn) [1-(Cyclopropylcarbonyl)-4-(5-fluoro-6-methoxy-indan-1-yl)piperazine], which IC50 is on record?
Answer: 10 to 100 nM

Question: `CCC(=O)C(=O)N1CCN(C2CCc3ccc(OC)cc32)CC1` (single isomer, unassigned; (-)) [(-)-4-(6-Methoxy-indan-1-yl)-1-(2-oxo-butanoyl)piperazine] was tested. Which IC50 did it give?
Answer: 10 to 100 nM

Question: With `COc1ccc2c(c1)C(N1CCN(C(=O)C3CC3)CC1)CCC2` (stereo not drawn) [1-(Cyclopropylcarbonyl)-4-(7-methoxy-tetralin-1-yl)piperazine] as the molecule, how does the IC50 read?
Answer: 100 to 250 nM

Question: How did the IC50 turn out when `CCC(C)(C)C(=O)N1CCN(C2CCc3ccc(OC)cc32)CC1` (single isomer, unassigned; (-)) [(-)-1-(2,2-Dimethyl-butanoyl)-4-(6-methoxy-indan-1-yl)piperazine] was run?
Answer: 10 to 100 nM

Question: With `CCNC(=O)N1CCN(C2CCCc3ccc(OC)cc32)CC1` (stereo not drawn) [N-Ethyl-4-(7-methoxy-tetralin-1-yl)piperazine-1-carboxamide] as the molecule, how does the IC50 read?
Answer: 100 to 250 nM

Question: With `CCCOc1ccc2c(c1)C(N1CCN(C(=O)NCC)CC1)CC2` (stereo not drawn) [N-Ethyl-4-(6-propyloxy-indan-1-yl)piperazine-1-carboxamide] as the molecule, how does the IC50 read?
Answer: 10 to 100 nM

Question: With `COc1ccc2c(c1)C(N1CCN(C(=O)C=C(C)C)CC1)CC2` (single isomer, unassigned; (-)) [(-)-1-[(2,2-Dimethyl-ethenyl)carbonyl]-4-(6-methoxy-indan-1-yl)piperazine] as the molecule, how does the IC50 read?
Answer: 10 to 100 nM

Question: How did the IC50 turn out when `CCC(C)C(=O)N1CCN(C2CCc3ccc(OC)cc32)CC1` (stereo not drawn) [4-(6-Methoxy-indan-1-yl)-1-(2-methyl-butanoyl)piperazine] was run?
Answer: 10 to 100 nM

Question: How did the IC50 turn out when `COc1ccc2c(c1)C(N1CCN(C(=O)c3ccc[nH]3)CC1)CC2` (single isomer, unassigned; (-)) [(-)-4-(6-Methoxy-indan-1-yl)-1-[(1H-pyrrol-2-yl)carbonyl]-piperazine] was run?
Answer: 10 to 100 nM

Question: For `COc1ccc2c(c1)C(N1CCN(C(=O)c3sccc3Br)CC1)CC2` (single isomer, unassigned; (-)) [(-)1-[(3-Bromothien-2-yl)carbonyl]-4-(6-Methoxy-indan-1-yl)piperazine], which IC50 is on record?
Answer: < 10 nM

Question: How did the IC50 turn out when `CCNC(=O)N1CCN(C2CCc3ccc(OCC)cc32)CC1` (stereo not drawn) [N-Ethyl-4-(6-ethoxy-indan-1-yl)piperazine-1-carboxamide] was run?
Answer: 10 to 100 nM

Question: `CCNC(=O)N1CCCN(C2CCc3ccc(OC)cc32)CC1` (stereo not drawn) [N-Ethyl-4-(6-methoxy-indan-1-yl)homopiperazine-1-carboxamide] was tested. Which IC50 did it give?
Answer: 10 to 100 nM

Question: Which IC50 does the source give for `COc1ccc2c(c1)C(N1CCN(C(=O)NC3CC3)CC1)CC2` (stereo not drawn) [N-Cyclopropyl-4-(6-methoxy-indan-1-yl)piperazine-1-carboxamide] here?
Answer: < 10 nM

Question: With `CCCNC(=O)N1CCN(C2CCc3ccc(OC)cc32)CC1` (stereo not drawn) [N-(n-Propyl)-4-(6-methoxy-indan-1-yl)piperazine-1-carboxamide] as the molecule, how does the IC50 read?
Answer: 10 to 100 nM

Question: Which IC50 does the source give for `CCNC(=O)N1CCN(C2CCc3ccc(OC)cc32)CC1` (single isomer, unassigned; (-)) [(-)-N-Ethyl-4-(6-methoxy-indan-1-yl)piperazine-1-carboxamide] here?
Answer: < 10 nM

Question: For `COc1ccc2c(c1)C(N1CCN(C(=O)NC(C)C)CC1)CC2` (stereo not drawn) [N-(1-Methylethyl)-4-(6-methoxy-indan-1-yl)piperazine-1-carboxamide], which IC50 is on record?
Answer: 10 to 100 nM

Question: With `CNC(=O)N1CCN(C2CCCc3ccc(OC)cc32)CC1` (stereo not drawn) [N-Methyl-4-(7-methoxy-tetralin-1-yl)piperazine-1-carboxamide] as the molecule, how does the IC50 read?
Answer: 10 to 100 nM

Question: With `CCNC(=O)N1CCN(C2CCc3cc(F)c(OC)cc32)CC1` (stereo not drawn) [N-Ethyl-4-(5-fluoro-6-methoxy-indan-1-yl)piperazine-1-carboxamide] as the molecule, how does the IC50 read?
Answer: 10 to 100 nM

Question: With `O=C(C1CC1)N1CCN(C2CCc3ccccc32)CC1` (stereo not drawn) [1-(Cyclopropylcarbonyl)-4-(indan-1-yl)piperazine] as the molecule, how does the IC50 read?
Answer: 100 to 250 nM

Question: `COc1ccc2c(c1)C(N1CCN(C(=O)c3c[nH]c4ccccc34)CC1)CC2` (single isomer, unassigned; (-)) [(-)-1-[(1H-indol-3-yl)carbonyl]-4-(6-methoxy-indan-1-yl)piperazine] was tested. Which IC50 did it give?
Answer: 100 to 250 nM

Question: For `COc1ccc2c(c1)C(N1CCN(C(=O)C3(C)CCCCC3)CC1)CC2` (single isomer, unassigned; (-)) [(-)-1-[(1-Methylcyclohexyl)carbonyl]-4-(6-methoxy-indan-1-yl)piperazine], which IC50 is on record?
Answer: 100 to 250 nM

Question: For `COc1ccc2c(c1)C(N1CCN(C(=O)CCl)CC1)CC2` (single isomer, unassigned; (-)) [(-)-1-(Chloroacetyl)-4-(6-methoxy-indan-1-yl)piperazine], which IC50 is on record?
Answer: 10 to 100 nM

Question: How did the IC50 turn out when `COc1ccc2c(c1)C(N1CCN(C(=O)c3csnn3)CC1)CC2` (single isomer, unassigned; (-)) [(-)-4-(6-Methoxy-indan-1-yl)-1-[(1,2,3-thiadiazol-4-yl)carbonyl]-piperazine] was run?
Answer: 10 to 100 nM

Question: `COc1ccc2c(c1)C(N1CCN(C(=O)c3sccc3Cl)CC1)CC2` (single isomer, unassigned; (-)) [(-)-1-[(3-Chlorothien-2-yl)carbonyl]-4-(6-methoxy-indan-1-yl)-1-piperazine] was tested. Which IC50 did it give?
Answer: < 10 nM

Question: Which IC50 does the source give for `CCCCCCCCCOc1ccc2c(c1)C(N1CCN(C(=O)NCC)CC1)CC2` (stereo not drawn) [N-Ethyl-4-(6-nonyloxy-indan-1-yl)piperazine-1-carboxamide] here?
Answer: 10 to 100 nM

Question: `COc1ccc2c(c1)C(N1CCN(C(=O)c3cc(Br)c(Br)s3)CC1)CC2` (single isomer, unassigned; (-)) [(-)-1-[(4,5-Dibromo-thien-2-yl)carbonyl]-4-(6-methoxy-indan-1-yl)piperazine] was tested. Which IC50 did it give?
Answer: 100 to 250 nM

Question: How did the IC50 turn out when `COc1ccc2c(c1)C(N1CCN(C(=O)c3ccccc3O)CC1)CC2` (single isomer, unassigned; (-)) [(-)-1-(2-Hydroxybenzoyl)-4-(6-methoxy-indan-1-yl)piperazine] was run?
Answer: < 10 nM

Question: With `COCC(=O)N1CCN(C2CCc3ccc(OC)cc32)CC1` (stereo not drawn) [1-(Methoxyacetyl)-4-(6-methoxy-indan-1-yl)piperazine] as the molecule, how does the IC50 read?
Answer: 10 to 100 nM

Question: For `COc1ccc2c(c1)C(N1CCN(C(=O)c3ccccc3Cl)CC1)CC2` (single isomer, unassigned; (-)) [(-)-1-(2-Chlorobenzoyl)-4-(6-methoxy-indan-1-yl)piperazine], which IC50 is on record?
Answer: 100 to 250 nM

Question: For `COc1ccc2c(c1)C(N1CCN(C(=O)C3CC3)CC1)CC2` (stereo not drawn) [1-(Cyclopropylcarbonyl)-4-(6-methoxy-indan-1-yl)piperazine], which IC50 is on record?
Answer: < 10 nM

Question: Which IC50 does the source give for `C=CCCCCCCCCC(=O)N1CCN(C2CCc3ccc(OC)cc32)CC1` (single isomer, unassigned; (-)) [(-)-4-(6-Methoxy-indan-1-yl)-1-(10-undecenoyl)piperazine] here?
Answer: 100 to 250 nM

Question: For `COc1ccc2c(c1)C(N1CCN(C(=O)C(C)(C)C)CC1)CC2` (stereo not drawn) [1-(2,2-dimethyl-propanoyl)-4-(6-methoxy-indan-1-yl)piperazine], which IC50 is on record?
Answer: 10 to 100 nM

Question: For `COc1ccc2c(c1)C(N1CCN(C(=O)c3cccs3)CC1)CC2` (stereo not drawn) [4-(6-Methoxy-indan-1-yl)-1-[(2-thienyl)carbonyl]piperazine], which IC50 is on record?
Answer: < 10 nM

Question: With `CCOc1ccc2c(c1)C(N1CCN(C(=O)C3CC3)CC1)CC2` (stereo not drawn) [1-(Cyclopropylcarbonyl)-4-(6-ethoxy-indan-1-yl)piperazine] as the molecule, how does the IC50 read?
Answer: < 10 nM

Question: With `CCc1ccc2c(c1)C(N1CCN(C(=O)C3CC3)CC1)CC2` (stereo not drawn) [1-(Cyclopropylcarbonyl)-4-(6-ethyl-indan-1-yl)piperazine] as the molecule, how does the IC50 read?
Answer: 100 to 250 nM

Question: How did the IC50 turn out when `COc1ccc2c(c1)C(N1CCN(C(=O)c3ccoc3)CC1)CC2` (single isomer, unassigned; (-)) [(-)-1-[(3-Furanyl)carbonyl]-4-(6-methoxy-indan-1-yl)piperazine] was run?
Answer: 10 to 100 nM

Question: How did the IC50 turn out when `COc1ccc2c(c1)C(N1CCN(C(=O)c3ccco3)CC1)CC2` (stereo not drawn) [1-[(2-Furanyl)carbonyl]-4-(6-methoxy-indan-1-yl)piperazine] was run?
Answer: < 10 nM

Question: Which IC50 does the source give for `COc1ccc2c(c1)C(N1CCN(C(=O)c3occc3C)CC1)CC2` (single isomer, unassigned; (-)) [(-)-4-(6-Methoxy-indan-1-yl)-1-[(3-methyl-furan-2-yl)carbonyl]piperazine] here?
Answer: < 10 nM

Question: For `CCCOc1ccc2c(c1)C(N1CCN(C(=O)C3CC3)CC1)CC2` (stereo not drawn) [1-(Cyclopropylcarbonyl)-4-[6-(1-propyloxy)indan-1-yl]piperazine], which IC50 is on record?
Answer: 10 to 100 nM

Question: How did the IC50 turn out when `COc1cc2c(cc1F)CCC2N1CCN(C(=O)C(C)C)CC1` (stereo not drawn) [4-(5-Fluoro-6-methoxy-indan-1-yl)-1-(2-methylpropanoyl)piperazine] was run?
Answer: 10 to 100 nM
